Target: T1, BRD4 proteins (Homo sapiens, UniProt O60885)
T1 construct: endogenous in cells; host or cells: MM.1S
Test: Degradation of BRD4 protein in MM.1S cell lines (Western blot densitometry)
Assay type: cell-based
Settings: MM.1S cells, 10 μM, 24 hours
Procedure, shortened: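 MM.1S cells in RPMI-1640 with 10% FBS were treated with each degrader at 10 μM for 24 h. RIPA lysates were analysed by SDS-PAGE/Western blot with β-actin as reference, and BRD4 band densitometry was scored as reduction <40% (+), 40-<70% (++) or ≥70% (+++).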

SMILES	BRD4 degrading capacity (%)
Cc1sc2c(c1C)C(c1ccc(Cl)cc1)=N[C@@H](CC(=O)N1CCC(CNc3ccc(C(=O)O)c(C#CCN)c3)CC1)c1nnc(C)n1-2 [5-139′, (S)-2-(3-aminoprop-1-yn-1-yl)-4-(((1-(2-(4-(4-chlorophenyl)-2,3,9-trimethyl-6H-thieno[3,2-f][1,2,4]triazolo[4,3-a][1,4]diazepin-6-yl)acetyl)piperidin-4-yl)methyl)amino)benzoic acid trifluoroacetic acid]	+ (the degrading capacity of each BRD4 degrader was reduced by less than 40%)
COC(=O)c1ccc(C(=O)N2CCN(C(=O)C[C@@H]3N=C(c4ccc(Cl)cc4)c4c(sc(C)c4C)-n4c(C)nnc43)CC2)cc1C#CCN.Cl [5-140′, methyl (S)-2-(3-aminoprop-1-yn-1-yl)-4-(4-(2-(4-(4-chlorophenyl)-2,3,9-trimethyl-6H-thieno[3,2-f][1,2,4]triazolo[4,3-a][1,4]diazepin-6-yl)acetyl)piperazine-1-carbonyl)benzoate hydrochloride]	+++ (the degrading capacity was reduced by 70% or more)
COC(=O)c1ccc(NC(=O)CCCNC(=O)C[C@@H]2N=C(c3ccc(Cl)cc3)c3c(sc(C)c3C)-n3c(C)nnc32)cc1C#CCNC(C)=O [5-148′, methyl (S)-2-(3-acetamidoprop-1-yn-1-yl)-4-(4-(2-(4-(4-chlorophenyl)-2,3,9-trimethyl-6H-thieno[3,2-f][1,2,4]triazolo[4,3-a][1,4]diazepin-6-yl)acetamido)butanamido)benzoate]	+ (the degrading capacity of each BRD4 degrader was reduced by less than 40%)
COC(=O)c1ccc(NC(=O)CCCN(C)C(=O)C[C@@H]2N=C(c3ccc(Cl)cc3)c3c(sc(C)c3C)-n3c(C)nnc32)cc1C#CCN.Cl [5-149′, methyl (S)-2-(3-aminoprop-1-yn-1-yl)-4-(4-(2-(4-(4-chlorophenyl)-2,3,9-trimethyl-6H-thieno[3,2-f][1,2,4]triazolo[4,3-a][1,4]diazepin-6-yl)-N-methylacetamido)butanamido)benzoate hydrochloride]	+++ (the degrading capacity was reduced by 70% or more)
COC(=O)c1ccc(N(C)C(=O)CCCNC(=O)C[C@@H]2N=C(c3ccc(Cl)cc3)c3c(sc(C)c3C)-n3c(C)nnc32)cc1C#CCN.Cl [5-150′, methyl (S)-2-(3-aminoprop-1-yn-1-yl)-4-(4-(2-(4-(4-chlorophenyl)-2,3,9-trimethyl-6H-thieno[3,2-f][1,2,4]triazolo[4,3-a][1,4]diazepin-6-yl)acetamido)-N-methylbutanamido)benzoate hydrochloride]	+++ (the degrading capacity was reduced by 70% or more)
COC(=O)c1ccc(N(C)C(=O)C2CCN(C(=O)C[C@@H]3N=C(c4ccc(Cl)cc4)c4c(sc(C)c4C)-n4c(C)nnc43)CC2)cc1C#CCN [5-152′, methyl (S)-2-(3-aminoprop-1-yn-1-yl)-4-(1-(2-(4-(4-chlorophenyl)-2,3,9-trimethyl-6H-thieno[3,2-f][1,2,4]triazolo[4,3-a][1,4]diazepin-6-yl)acetyl)-N-methylpiperidine-4-carboxamido)benzoate trifluoroacetic acid]	+++ (the degrading capacity was reduced by 70% or more)
COC(=O)c1ccc(C(=O)N(C)C2CCN(C(=O)C[C@@H]3N=C(c4ccc(Cl)cc4)c4c(sc(C)c4C)-n4c(C)nnc43)CC2)cc1C#CCN [5-153′, methyl (S)-2-(3-aminoprop-1-yn-1-yl)-4-((1-(2-(4-(4-chlorophenyl)-2,3,9-trimethyl-6H-thieno[3,2-f][1,2,4]triazolo[4,3-a][1,4]diazepin-6-yl)acetyl)piperidin-4-yl)(methyl)carbamoyl)benzoate trifluoroacetic acid]	+++ (the degrading capacity was reduced by 70% or more)
COC(=O)c1ccc(NC(=O)C2CCN(C(=O)C[C@@H]3N=C(c4ccc(Cl)cc4)c4c(sc(C)c4C)-n4c(C)nnc43)CC2)cc1C#CCNS(N)(=O)=O [5-154′, methyl (S)-4-(1-(2-(4-(4-chlorophenyl)-2,3,9-trimethyl-6H-thieno[3,2-f][1,2,4]triazolo[4,3-a][1,4]diazepin-6-yl)acetyl)piperidine-4-carboxamido)-2-(3-(sulfamoylamino)prop-1-yn-1-yl)benzoate trifluoroacetic acid]	+++ (the degrading capacity was reduced by 70% or more)
COC(=O)c1ccc(NC(=O)C2CCN(C(=O)C[C@@H]3N=C(c4ccc(Cl)cc4)c4c(sc(C)c4C)-n4c(C)nnc43)CC2)cc1C#CC1(N)CC1 [5-155′, methyl (S)-2-((1-aminocyclopropyl)ethynyl)-4-(1-(2-(4-(4-chlorophenyl)-2,3,9-trimethyl-6H-thieno[3,2-f][1,2,4]triazolo[4,3-a][1,4]diazepin-6-yl)acetyl)piperidine-4-carboxamido)benzoate trifluoroacetic acid]	++ (the degrading capacity was reduced by 40% to 70% (exclusive of 70))
COC(=O)c1ccc(NC(=O)C2CCN(C(=O)C[C@@H]3N=C(c4ccc(Cl)cc4)c4c(sc(C)c4C)-n4c(C)nnc43)CC2)cc1C#CCNC(=O)OC(C)OC(=O)C(C)C (stereo partly drawn) [5-157′, methyl 4-(1-(2-((S)-4-(4-chlorophenyl)-2,3,9-trimethyl-6H-thieno[3,2-f][1,2,4]triazolo[4,3-a][1,4]diazepin-6-yl)acetyl)piperidine-4-carboxamido)-2-(3-(((1-(isobutyryloxy)ethoxy)carbonyl)amino)prop-1-yn-1-yl)benzoate]	+++ (the degrading capacity was reduced by 70% or more)
COC(=O)c1ccc(NC(=O)C2CCN(C(=O)C[C@@H]3N=C(c4ccc(Cl)cc4)c4c(sc(C)c4C)-n4c(C)nnc43)CC2)cc1C#CCOS(N)(=O)=O [5-158′, methyl (S)-4-(1-(2-(4-(4-chlorophenyl)-2,3,9-trimethyl-6H-thieno[3,2-f][1,2,4]triazolo[4,3-a][1,4]diazepin-6-yl)acetyl)piperidine-4-carboxamido)-2-(3-(sulfamoyloxy)prop-1-yn-1-yl)benzoate trifluoroacetic acid]	+++ (the degrading capacity was reduced by 70% or more)
COC(=O)c1ccc(N2CC3(CN(C(=O)C[C@@H]4N=C(c5ccc(Cl)cc5)c5c(sc(C)c5C)-n5c(C)nnc54)C3)C2)cc1C#CCNC(=O)OC(C)OC(=O)C(C)C (stereo partly drawn) [5-162′, methyl 4-(6-(2-((S)-4-(4-chlorophenyl)-2,3,9-trimethyl-6H-thieno[3,2-f][1,2,4]triazolo[4,3-a][1,4]diazepin-6-yl)acetyl)-2,6-diazaspiro[3.3]heptan-2-yl)-2-(3-(((1-(isobutyryloxy)ethoxy)carbonyl)amino)prop-1-yn-1-yl)benzoate]	+++ (the degrading capacity was reduced by 70% or more)
COC(=O)c1ccc(N2CCN(CCCNC(=O)C[C@@H]3N=C(c4ccc(Cl)cc4)c4c(sc(C)c4C)-n4c(C)nnc43)CC2)cc1C#CCN.Cl [5-164′, methyl (S)-2-(3-aminoprop-1-yn-1-yl)-4-(4-(3-(2-(4-(4-chlorophenyl)-2,3,9-trimethyl-6H-thieno[3,2-f][1,2,4]triazolo[4,3-a][1,4]diazepin-6-yl)acetamido)propyl)piperazin-1-yl)benzoate hydrochloride]	+++ (the degrading capacity was reduced by 70% or more)
COC(=O)c1cc(N2CCN(CCCNC(=O)C[C@@H]3N=C(c4ccc(Cl)cc4)c4c(sc(C)c4C)-n4c(C)nnc43)CC2)ccc1C#CCN.Cl [5-165′, methyl (S)-2-(3-aminoprop-1-yn-1-yl)-5-(4-(3-(2-(4-(4-chlorophenyl)-2,3,9-trimethyl-6H-thieno[3,2-f][1,2,4]triazolo[4,3-a][1,4]diazepin-6-yl)acetamido)propyl)piperazin-1-yl)benzoate hydrochloride]	+++ (the degrading capacity was reduced by 70% or more)
COC(=O)c1ccc(N2CC3(CCN(C(=O)C[C@@H]4N=C(c5ccc(Cl)cc5)c5c(sc(C)c5C)-n5c(C)nnc54)CC3)C2)cc1C#CCN.Cl [5-168′, methyl (S)-2-(3-aminoprop-1-yn-1-yl)-4-(7-(2-(4-(4-chlorophenyl)-2,3,9-trimethyl-6H-thieno[3,2-f][1,2,4]triazolo[4,3-a][1,4]diazepin-6-yl)acetyl)-2,7-diazaspiro[3.5]nonan-2-yl)benzoate hydrochloride]	+++ (the degrading capacity was reduced by 70% or more)

Source: patent US20240425517A1, “NOVEL COMPOUND FOR DEGRADATION OF TARGET PROTEIN OR POLYPEPTIDE BY POLYUBIQUITINATION” (PRAZER THERAPEUTICS INC., priority 2021, published 2024)
